Test results published in US4108991A, “N-aminosulfenyl derivatives of aldicarb” (priority 1976, dated 1978).

System: Mexican bean beetle
Experiment: Initial contact activity, leaf dip, Mexican bean beetle
Assay type: in vivo, Epilachna varivestis Muls.
Details: Epilachna varivestis, foliar, 48 h, initial, BB, 156 PPM, 48 hours; read-out: Percent Kill
Protocol: (§1) Initial Contact Activity: One half gram of test compound was dissolved in 40 ml of acetone and this solution was dispersed in 360 ml of water containing one drop of isooctylphenyl polyethoxyethanol. Aliquots of this solution, which corresponds to 1250 ppm of active ingredient, were diluted with an appropriate amount of water to provide solutions containing various concentrations of active ingredient. Test organisms and techniques were as follows: The activity against the Mexican bean beetle (Epilachna varivestis Muls.) and the southern armyworm (Spodoptera eridania [Cram.]) was evaluated by dipping the leaves of pinto bean plants into the test solution and infesting the leaves with the appropriate immature-form insects when the foiliage had dried; the activity against the pea aphid (Acyrthosiphon pisum [Harris]) was evaluated on broad bean plants whose leaves were dipped before infestation with adult aphids; the activity against two-sotted spider mites (Tetranychus urticae Koch) was evaluated on pinto bean plants whose leaves were dipped after infestation with adult mites; the activity against the milkweed bug (Oncopeltus fasciatus [Dallas]), and the plum curculio (Conotrachelus nenuphar [Herbst]) was evaluated by spraying the test solutions into glass dishes or jars containing the adult insects; the activity against the confused flour beetle (Tribolium confusum duVal) was evaluated by introducing the insects into glass dishes which had been previously sprayed with test solution and allowed to dry. All organisms in the test were maintained in a holding room at 80° F and 50% relative humidity for an exposure period of 48 hours. At the end of this time, the dead and living insects or mites were counted, and the percent kill was calculated.

SMILES | mortality at 156 ppm
CSC(C)(C)C=NOC(=O)N(C)SN(C)Cc1ccccc1 [Example I, 2-methyl-2-(methylthio)propanol O-[(N-benzyl-N-methylaminosulfenyl)(methyl)carbamoyl]oxime] | 82%

Same assay, conditions: Epilachna varivestis, foliar, 48 h, initial, BB, 312 PPM, 48 hours; read-out: Percent Kill

SMILES | mortality at 312 ppm
CSC(C)(C)C=NOC(=O)N(C)SN(C)Cc1ccccc1 [Example I, 2-methyl-2-(methylthio)propanol O-[(N-benzyl-N-methylaminosulfenyl)(methyl)carbamoyl]oxime] | 94%

Same assay, conditions: Epilachna varivestis, foliar, 48 h, initial, BB, 625 PPM, 48 hours; read-out: Percent Kill

SMILES | mortality at 625 ppm
CSC(C)(C)C=NOC(=O)N(C)SN(C)Cc1ccccc1 [Example I, 2-methyl-2-(methylthio)propanol O-[(N-benzyl-N-methylaminosulfenyl)(methyl)carbamoyl]oxime] | 100%

Same assay, conditions: Epilachna varivestis, foliar, 48 h, initial, BB, 1250 PPM, 48 hours; read-out: Percent Kill

SMILES | mortality at 1250 ppm
CSC(C)(C)C=NOC(=O)N(C)SN(C)Cc1ccccc1 [Example I, 2-methyl-2-(methylthio)propanol O-[(N-benzyl-N-methylaminosulfenyl)(methyl)carbamoyl]oxime] | 100%

System: Two-spotted spider mite
Experiment: Residual (7-day) contact activity, two-spotted spider mite
Assay type: in vivo, Tetranychus urticae Koch
Details: Tetranychus urticae, 168 h, residual 7-day, SM, 156 PPM; read-out: Percent Kill
Protocol: as §1
(§2) Residual Contact Activity: The residual contact activity of the compounds was determined on the same organisms using the techniques described above, except that in each case the treated surface was allowed to dry and was exposed to normal light and air for seven days before introduction of the mites or insects.

SMILES | mortality at 156 ppm
CSC(C)(C)C=NOC(=O)N(C)SN(C)Cc1ccccc1 [Example I, 2-methyl-2-(methylthio)propanol O-[(N-benzyl-N-methylaminosulfenyl)(methyl)carbamoyl]oxime] | 3.2%

Same assay, conditions: Tetranychus urticae, 168 h, residual 7-day, SM, 312 PPM; read-out: Percent Kill

SMILES | mortality at 312 ppm
CSC(C)(C)C=NOC(=O)N(C)SN(C)Cc1ccccc1 [Example I, 2-methyl-2-(methylthio)propanol O-[(N-benzyl-N-methylaminosulfenyl)(methyl)carbamoyl]oxime] | 63%

Same assay, conditions: Tetranychus urticae, 168 h, residual 7-day, SM, 1250 PPM; read-out: Percent Kill

SMILES | mortality at 1250 ppm
CSC(C)(C)C=NOC(=O)N(C)SN(C)Cc1ccccc1 [Example I, 2-methyl-2-(methylthio)propanol O-[(N-benzyl-N-methylaminosulfenyl)(methyl)carbamoyl]oxime] | 99.5%

System: Pea aphid
Experiment: Residual (7-day) contact activity, pea aphid
Assay type: in vivo, Acyrthosiphon pisum [Harris]
Details: Acyrthosiphon pisum, 168 h, residual 7-day, PA, 156 PPM; read-out: Percent Kill
Protocol: as §1, §2

SMILES | mortality at 156 ppm
CSC(C)(C)C=NOC(=O)N(C)SN(C)Cc1ccccc1 [Example I, 2-methyl-2-(methylthio)propanol O-[(N-benzyl-N-methylaminosulfenyl)(methyl)carbamoyl]oxime] | 0%

Same assay, conditions: Acyrthosiphon pisum, 168 h, residual 7-day, PA, 312 PPM; read-out: Percent Kill

SMILES | mortality at 312 ppm
CSC(C)(C)C=NOC(=O)N(C)SN(C)Cc1ccccc1 [Example I, 2-methyl-2-(methylthio)propanol O-[(N-benzyl-N-methylaminosulfenyl)(methyl)carbamoyl]oxime] | 6.3%

Same assay, conditions: Acyrthosiphon pisum, 168 h, residual 7-day, PA, 1250 PPM; read-out: Percent Kill

SMILES | mortality at 1250 ppm
CSC(C)(C)C=NOC(=O)N(C)SN(C)Cc1ccccc1 [Example I, 2-methyl-2-(methylthio)propanol O-[(N-benzyl-N-methylaminosulfenyl)(methyl)carbamoyl]oxime] | 100%

System: Mexican bean beetle
Experiment: Systemic activity, soil-watering, Mexican bean beetle
Assay type: in vivo, Epilachna varivestis Muls.
Details: Epilachna varivestis, 48 h, systemic, BB, 39 PPM; read-out: Percent Kill
Protocol: as §1
Systemic Activity: Systemic activity was measured using a soil-watering technique. Test organisms were Mexican bean beetle, southern armyworm, pea aphid, and mites on plants as described above in this Example. With appropriate precautions to avoid contact of the solution with the test plant surfaces, 25 ml of a test solution, prepared as above to contain the desired amount of active ingredient, were poured evenly over the surface of the soil in which the plant was growing. The treated plants were maintained under normal growing conditions for three days to permit translocation of the toxicant, after which the leaves were infested. Two days after infestation, counts of living and dead insects were made.

SMILES | mortality at 39 ppm
CSC(C)(C)C=NOC(=O)N(C)SN(C)Cc1ccccc1 [Example I, 2-methyl-2-(methylthio)propanol O-[(N-benzyl-N-methylaminosulfenyl)(methyl)carbamoyl]oxime] | 0%

Same assay, conditions: Epilachna varivestis, 48 h, systemic, BB, 156 PPM; read-out: Percent Kill

SMILES | mortality at 156 ppm
CSC(C)(C)C=NOC(=O)N(C)SN(C)Cc1ccccc1 [Example I, 2-methyl-2-(methylthio)propanol O-[(N-benzyl-N-methylaminosulfenyl)(methyl)carbamoyl]oxime] | 75%

System: Plum curculio
Experiment: Residual (7-day) contact activity, plum curculio
Assay type: in vivo, Conotrachelus nenuphar [Herbst]
Details: Conotrachelus nenuphar, 168 h; residual 7-day, PC, 156 PPM; read-out: Percent Kill
Protocol: as §1, §2

SMILES | mortality at 156 ppm
CSC(C)(C)C=NOC(=O)N(C)SN(C)Cc1ccccc1 [Example I, 2-methyl-2-(methylthio)propanol O-[(N-benzyl-N-methylaminosulfenyl)(methyl)carbamoyl]oxime] | 23%

Same assay, conditions: Conotrachelus nenuphar, 168 h; residual 7-day, PC, 312 PPM; read-out: Percent Kill

SMILES | mortality at 312 ppm
CSC(C)(C)C=NOC(=O)N(C)SN(C)Cc1ccccc1 [Example I, 2-methyl-2-(methylthio)propanol O-[(N-benzyl-N-methylaminosulfenyl)(methyl)carbamoyl]oxime] | 43%

Same assay, conditions: Conotrachelus nenuphar, 168 h; residual 7-day, PC, 1250 PPM; read-out: Percent Kill

SMILES | mortality at 1250 ppm
CSC(C)(C)C=NOC(=O)N(C)SN(C)Cc1ccccc1 [Example I, 2-methyl-2-(methylthio)propanol O-[(N-benzyl-N-methylaminosulfenyl)(methyl)carbamoyl]oxime] | 20%

System: Plum curculio
Experiment: Initial contact activity, spray, plum curculio
Assay type: in vivo, Conotrachelus nenuphar [Herbst]
Details: Conotrachelus nenuphar; initial, PC, 10 PPM, 48 hours; read-out: Percent Kill
Protocol: as §1

SMILES | mortality at 10 ppm
CSC(C)(C)C=NOC(=O)N(C)SN(C)Cc1ccccc1 [Example I, 2-methyl-2-(methylthio)propanol O-[(N-benzyl-N-methylaminosulfenyl)(methyl)carbamoyl]oxime] | 10%

Same assay, conditions: Conotrachelus nenuphar; initial, PC, 39 PPM, 48 hours; read-out: Percent Kill

SMILES | mortality at 39 ppm
CSC(C)(C)C=NOC(=O)N(C)SN(C)Cc1ccccc1 [Example I, 2-methyl-2-(methylthio)propanol O-[(N-benzyl-N-methylaminosulfenyl)(methyl)carbamoyl]oxime] | 0%

Same assay, conditions: Conotrachelus nenuphar; initial, PC, 156 PPM, 48 hours; read-out: Percent Kill

SMILES | mortality at 156 ppm
CSC(C)(C)C=NOC(=O)N(C)SN(C)Cc1ccccc1 [Example I, 2-methyl-2-(methylthio)propanol O-[(N-benzyl-N-methylaminosulfenyl)(methyl)carbamoyl]oxime] | 0%

Same assay, conditions: Conotrachelus nenuphar; initial, PC, 1250 PPM, 48 hours; read-out: Percent Kill

SMILES | mortality at 1250 ppm
CSC(C)(C)C=NOC(=O)N(C)SN(C)Cc1ccccc1 [Example I, 2-methyl-2-(methylthio)propanol O-[(N-benzyl-N-methylaminosulfenyl)(methyl)carbamoyl]oxime] | 45%

System: not listed separately
Experiment: Toxicity to rats, acute oral median lethal dose (LD50), Method A
Assay type: in vivo, young female albino rats, derived from Sprague-Dawley stock
Details: in vivo, rat, corn oil, 14 days observation
Protocol: (§3) Method A: Young female albino rats, derived from Sprague-Dawley stock and weighing between 175 and 200 g, were used. An initial screening was conducted to determine the general level of toxicity of the test compounds and to establish the dosing range to be used with each compound. The test materials were suspended in corn oil and administered directly into the stomachs of the rats, using a hypodermic syringe equipped with a ball-tipped intubating needle. A range of dosing levels was employed utilizing two rats at each level. […] This method was used to determine the toxicity to rats of the compounds of Examples I, II, and III and aldicarb.

SMILES | LD50 at 336 h
CSC(C)(C)C=NOC(=O)N(C)SN(C)Cc1ccccc1 [Example I, 2-methyl-2-(methylthio)propanol O-[(N-benzyl-N-methylaminosulfenyl)(methyl)carbamoyl]oxime] | 9.4 mg/kg

System: rats
Experiment: as above
Assay type: in vivo, young female albino rats, derived from Sprague-Dawley stock
Details: rat
Protocol: as §3

SMILES | LD50 relative to that of aldicarb
CSC(C)(C)C=NOC(=O)N(C)SN(C)Cc1ccccc1 [Example I, 2-methyl-2-(methylthio)propanol O-[(N-benzyl-N-methylaminosulfenyl)(methyl)carbamoyl]oxime] | 19 times
